According to PubChem BioAssay AID1996:
Converted amounts (≈) assume the structure as drawn.

Conditions: buffer; pH 7.4; 200.0 µM

| SMILES | solubility kinetic |
| --- | --- |
| Cc1cc(C(=O)Nc2ccc3ccccc3c2)c(C)o1 | 1.8 µg/mL (≈ 6.78 µM) |
| O=C1C2CCCN2C(=S)N1Cc1ccccc1 (configuration not stated) | > 36.9 µg/mL |
| CC1CCN(S(=O)(=O)c2ccc3c(c2)n(C)c(=O)n3C)CC1 | > 48.5 µg/mL |
| CCN(CC)C(=O)Oc1ccnc2cc(Cl)ccc12 | > 41.8 µg/mL |
| CCN(CC)C(=O)Cc1ccccc1 | > 28.7 µg/mL |
| COc1ccc(C(=O)NC(C)c2ccc(-n3ccnc3)cc2)c(OC)c1 (configuration not stated) | > 52.7 µg/mL |
| CCOC(=O)c1cc(-c2csc(COc3ccccc3)n2)on1 | 0.4 µg/mL (≈ 1.21 µM) |
| COc1ccc(CNc2nc3ccccc3n2C(C)C)c(O)c1 | 25.7 µg/mL (≈ 82.5 µM) |
| CC(=O)Nc1ccc2nc(NC(=O)CCc3ccccc3)sc2c1 | 0.7 µg/mL (≈ 2.06 µM) |
| CSc1ccccc1NC(=O)COc1ccccc1C | < 0.6 µg/mL |
| COc1ccc(NC(=O)COc2ccccc2Cc2ccccc2)cn1 | 12.2 µg/mL (≈ 35 µM) |
| c1ccc2c(c1)Sc1ccccc1N2CC1CN2CCC1CC2 (configuration not stated) | > 48.4 µg/mL |
| Cc1ccc2oc(=O)n(CC(=O)OCCC(C)C)c2c1 | 16 µg/mL (≈ 57.7 µM) |
| Cc1[nH]c(C)c(C(=O)/C=C/c2ccc([N+](=O)[O-])cc2)c1C | 2.9 µg/mL (≈ 10.2 µM) |
| NC(=O)c1cc(S(=O)(=O)Nc2ccccc2)cs1 | > 42.3 µg/mL |
| CCOCCCn1c(=NC(C)=O)c(C#N)cc2c(=O)n3cccc(C)c3nc21 | 33 µg/mL (≈ 87 µM) |
| Nc1nc(NCCc2ccccc2)nc(NCc2ccccc2)c1[N+](=O)[O-] | 0.2 µg/mL (≈ 0.549 µM) |
| COc1ccc(CCNC(=O)COC(=O)/C=C/c2cccc(F)c2)cc1 | 5.4 µg/mL (≈ 15.1 µM) |
| Cc1ccc2c(c1)oc(=O)n2CC(=O)c1ccccc1 | 6.5 µg/mL (≈ 24.3 µM) |

| SMILES | solubility kinetic |
| --- | --- |
| Cc1ccc(S(=O)(=O)N2CCN(C(C)C(=O)NCC(C)c3ccccc3)CC2)cc1 (configuration not stated) | 58.2 µg/mL (≈ 135 µM) |
| O=C(Nc1nccs1)C1CC(=O)N(c2ccc(F)cc2)C1 (configuration not stated) | 9.7 µg/mL (≈ 31.8 µM) |
| Cc1nc2cc(Cl)c(Cl)cc2n1CCCO | 33.9 µg/mL (≈ 131 µM) |
| Cc1ccccc1NC(=O)c1c(C)cc(=O)oc1C | > 38.6 µg/mL |
| CC(=O)c1ccccc1NC(=O)CCN1C(=O)C2CCCCC2C1=O (configuration not stated) | > 51.4 µg/mL |
| CCN(CC)C(=O)Cn1cc(C(=O)C2CC2)c2ccccc21 | > 44.8 µg/mL |
| O=C(O)Cn1cc(C(=O)C(F)(F)F)c2ccccc21 | > 40.7 µg/mL |
| CCCCn1c(=O)c(CCC(=O)O)nc2ccccc21 | 31.8 µg/mL (≈ 116 µM) |
| CCN(CC)CCCNC(=O)Cn1ccc2ccccc2c1=O | > 47.3 µg/mL |
| CCOc1ccc(OCC(=O)Nc2ccc(S(N)(=O)=O)cc2)cc1 | 7.1 µg/mL (≈ 20.3 µM) |
| CCOC(=O)CCNCc1ccc(F)cc1.Cl | > 39.3 µg/mL |
| Cc1cccc(S(=O)(=O)NCCc2ccccc2)c1 | 35.7 µg/mL (≈ 130 µM) |
| O=C(NC(=S)Nc1ccccc1Cl)C1CC1 | > 38.2 µg/mL |
| Nc1ccc(S(=O)(=O)[O-])c[nH+]1 | > 26.1 µg/mL |
| CCOC(=O)C1CCN(CC(=O)Nc2ccc(OC)c(S(=O)(=O)N3CCCCC3)c2)CC1 | > 70.1 µg/mL |
| CN(C(=O)CSc1nc(N)cc(N)n1)C1CCS(=O)(=O)C1 (configuration not stated) | 41 µg/mL (≈ 124 µM) |
| CCOc1ccc(C(C)=O)cc1CN1C(=O)NC(C)(C2CC2)C1=O (configuration not stated) | 41.3 µg/mL (≈ 125 µM) |
| CCCCC(=O)NC(=S)Nc1ccc(NC(=O)C(C)C)c(OC)c1 | 5.4 µg/mL (≈ 15.4 µM) |

More lines, now with the values ahead:

| solubility kinetic | SMILES |
| --- | --- |
| 18.3 µg/mL (≈ 73.4 µM) | N#C/C(=C\c1ccccc1)C(=O)Nc1cccnc1 |
| > 37 µg/mL | Cc1cccc(CC(=O)NC2CCN(C)CC2)c1 |
| > 27 µg/mL | c1cnc2c(c1)ccc1cccnc12 |
| 8.5 µg/mL (≈ 29.7 µM) | O=C1CN(c2ccc(F)cc2)C(=S)N1c1ccccc1 |
| > 50.2 µg/mL | CCOc1c(C)cc(S(=O)(=O)NCc2ccccn2)c(C)c1C |
| 2.1 µg/mL (≈ 6.92 µM) | O=[N+]([O-])c1ccc(N2CCN(CC3CCCCC3)CC2)cc1 |
| 29.9 µg/mL (≈ 149 µM) | O=c1[nH]c(=O)n(C2CCCO2)cc1F (configuration not stated) |
| 6.8 µg/mL (≈ 31.9 µM) | c1ccc2c(c1)CSc1ccccc1N2 |
| > 41 µg/mL | O=C(CC1NCCNC1=O)NC1Cc2ccccc2C1 (configuration not stated) |
| > 47.4 µg/mL | COc1ccccc1C(=O)OCc1cc(=O)n2ccsc2n1 |
| < 0.4 µg/mL | O=C(Nc1ccccc1)Nc1scc2c1c(=O)oc1ccccc12 |
| 15.8 µg/mL (≈ 54 µM) | COc1ccccc1CNC(=O)c1ccc2ccccc2n1 |
| 4 µg/mL (≈ 10.8 µM) | O=C(NCc1ccco1)/C(=C/c1ccc(Cl)cc1)NC(=O)c1ccco1 |
| > 56.4 µg/mL | CCCn1c(=N)n(CC(O)COc2ccc(C)cc2)c2ccccc21.Cl (configuration not stated) |
| > 48.1 µg/mL | COCCNc1nnc(Cc2ccc(OC)c(OC)c2)c(=O)[nH]1 |
| > 27.2 µg/mL | CC(=O)NNc1cc(C)nc(N)n1 |
| 8.1 µg/mL (≈ 18.6 µM) | Cc1ccc(S(=O)(=O)N2CCN(C(=O)CNC(=O)c3ccc(Cl)cc3)CC2)cc1 |
| > 42.2 µg/mL | NC(=NC1CCCCC1)NS(=O)(=O)c1ccccc1 |
| 1.3 µg/mL (≈ 5.29 µM) | COc1ccc(-c2cc(C#N)nc(Cl)n2)cc1 |
| 3.7 µg/mL (≈ 10.4 µM) | COC(=O)C1CN(C(=O)COc2cc(C)cc(C)c2)c2ccccc2O1 (configuration not stated) |
| > 55.9 µg/mL | Cc1cc(C)c(C(=O)COC(=O)CN2C(=O)NC3(CCCC3)C2=O)cc1C |
| > 43.6 µg/mL | CSc1ncccc1C(=O)NCCc1ccccc1F |
| 28.7 µg/mL (≈ 94 µM) | CCC(C)(C)NC(=O)CCCSc1nc2ccccc2[nH]1 |
| 48.7 µg/mL (≈ 149 µM) | Cn1cccc1C(=O)OCC(=O)N1CCN(c2ccccc2)CC1 |
| 27 µg/mL (≈ 99.1 µM) | CC(C)C1Cc2ccccc2-c2[nH]c(=S)[nH]c(=O)c21 (configuration not stated) |

| solubility kinetic | SMILES |
| --- | --- |
| 26.3 µg/mL (≈ 74.4 µM) | COc1ccc2[nH]cc(CCNC(=S)NCCc3ccccc3)c2c1 |
| 42 µg/mL (≈ 143 µM) | COc1ccc(-c2nc(C)sc2CC(=O)O)cc1OC |
| 41 µg/mL (≈ 133 µM) | O=C(O)CN1C(=O)S/C(=C\c2ccc3c(c2)OCO3)C1=O |
| 13.3 µg/mL (≈ 43.8 µM) | CCOc1ccc(OCc2ccc(C(=O)NC(C)C)o2)cc1 |
| 42.4 µg/mL (≈ 137 µM) | Cc1ccccc1C(=O)NCC(C)NC(=O)c1ccccc1C (configuration not stated) |
| 7.4 µg/mL (≈ 19.5 µM) | CCOC(=O)C1=C(C)NC2=C(C(=O)c3ccccc32)C1c1ccc([N+](=O)[O-])o1 (configuration not stated) |
| 2.3 µg/mL (≈ 8.03 µM) | Cc1ccc(C)c(N2CCN(CC3CCCCC3)CC2)c1 |
| > 43.8 µg/mL | O=C(O)CSc1nc2c(c(C(F)(F)F)n1)CCCC2 |
| > 58 µg/mL | COCCCN(CC(=O)Nc1ccc(F)cc1)S(=O)(=O)c1cccs1 |
| 13.7 µg/mL | Cl.Oc1ccc(Nc2ncnc3ccccc23)cc1 |
| > 52.7 µg/mL | COc1cc(NC(=S)NC2CC(C)(C)NC(C)(C)C2)cc(OC)c1 |
| 2.9 µg/mL (≈ 9.23 µM) | COc1ccccc1NC(=O)CC(=O)c1cccc([N+](=O)[O-])c1 |
| > 47.6 µg/mL | CCNC(=O)c1ccccc1NC(=O)C1CC(=O)N(C(C)C)C1 (configuration not stated) |
| 33.4 µg/mL (≈ 118 µM) | C=CCn1cccc(C(=O)Nc2ccc(C)c(C)c2)c1=O |
| 35.1 µg/mL (≈ 125 µM) | CCOC(=O)c1c(-c2cccc(N)c2)cn2ccccc12 |
| 0.5 µg/mL (≈ 1.59 µM) | Clc1cccc(C2Nc3cccc4cccc(c34)N2)c1Cl |
| < 0.3 µg/mL | CCCCCCCOc1ccc(C(=O)Nc2cccnc2)cc1 |
| 15.7 µg/mL (≈ 44.5 µM) | Cc1cccc(N2CCN(C(=O)c3ccc4c(c3)OCCO4)CC2)c1C |
| 4.7 µg/mL (≈ 14.9 µM) | O=[N+]([O-])c1ccc(OCc2cnc(Cl)s2)c([N+](=O)[O-])c1 |
| > 41 µg/mL | O=C1N=C(N2CCCCC2)S/C1=C\c1ccncc1 |
| > 42.3 µg/mL | CCc1ccc(C)[n+](CC(=O)c2cccs2)c1.[Cl-] |
| 2 µg/mL (≈ 6.43 µM) | O=C(c1ccc([N+](=O)[O-])cc1)c1cc2ccc(O)cc2oc1=O |
| 35.9 µg/mL (≈ 149 µM) | Nc1nc(OCc2ccccc2)c2[nH]cnc2n1 |
| < 0.4 µg/mL | O=C(Cc1ccccc1)Nc1ccc(NC(=O)c2cccs2)cc1 |
| > 29 µg/mL | O/N=C\c1cccn1-c1nccs1 |
